# Results published in patent publication US20220378706A1, “PHARMACEUTICAL COMPOSITION COMPRISING PDE9 INHIBITOR” (Eisai R&D Management Co., Ltd., priority 2017, published 2022).
# Like-named read-outs stand apart in the source and are kept apart here.
# Legend:
# [1] = Single dose clinical study Part B: CSF Compound A pharmacokinetics; assay type: in vivo; settings: human
# Method: After the Screening Period, subjects returned to the clinic on […] for Baseline procedures. […] Serial CSF sampling via the lumbar catheter commenced on Day 1, after an overnight fast. CSF samples were collected on Day 1 over a period of 3 hours predose. Subjects were then administered study drug, and serial CSF sampling for 30 hours postdose was performed to determine CSF cGMP and CSF Compound A concentrations. Blood samples for plasma Compound A PK were collected at the same time points as CSF sampling. Safety evaluations were also performed.
# Concentrations of Compound A in CSF were analyzed in serial CSF samples collected at predose and postdose at 1, 2, 3, 4, 5, 6, 8, 10, 12, 14, 16, 18, 24, and 30 hours.
# (§1) Plasma, urine and CSF concentrations of Compound A were measured using validated liquid chromatography mass spectrometry/mass spectrometry (LC MS/MS) assay methods. CSF concentrations of cGMP were measured using a validated LC-MS/MS assay method.
# The following PK parameters were derived by noncompartmental analysis using CSF Compound A concentrations: […]
# [2] = Single dose clinical study Parts A and C: urine Compound A pharmacokinetics; assay type: in vivo, human; settings: for CL renal: human, po
# Method: Urine Compound A concentrations were analyzed predose and up to 96 hours postdose.
# as §1
# The following PK parameters were calculated for Compound A: […]
# CSF cGMP = assay: Multiple ascending dose study: CSF cGMP; assay type: in vivo, human
# Method: Four sequential cohorts of healthy participants (≥50 years and ≤85 years old) were treated with multiple ascending doses of Compound A up to the maximum tolerated dose (MTD). A total of 6 participants per cohort were randomized to Compound A. Proposed doses of Compound A were:
# Compound A was administered orally with 240 milliliter (mL) (8 fluid ounces) of water. […]
# PDE9 = PDE9 (Homo sapiens, UniProt O76083); settings: WO2013/051369, WO2014/163147; cited from earlier work
# Sequence of PDE9 (O76083 whole entry): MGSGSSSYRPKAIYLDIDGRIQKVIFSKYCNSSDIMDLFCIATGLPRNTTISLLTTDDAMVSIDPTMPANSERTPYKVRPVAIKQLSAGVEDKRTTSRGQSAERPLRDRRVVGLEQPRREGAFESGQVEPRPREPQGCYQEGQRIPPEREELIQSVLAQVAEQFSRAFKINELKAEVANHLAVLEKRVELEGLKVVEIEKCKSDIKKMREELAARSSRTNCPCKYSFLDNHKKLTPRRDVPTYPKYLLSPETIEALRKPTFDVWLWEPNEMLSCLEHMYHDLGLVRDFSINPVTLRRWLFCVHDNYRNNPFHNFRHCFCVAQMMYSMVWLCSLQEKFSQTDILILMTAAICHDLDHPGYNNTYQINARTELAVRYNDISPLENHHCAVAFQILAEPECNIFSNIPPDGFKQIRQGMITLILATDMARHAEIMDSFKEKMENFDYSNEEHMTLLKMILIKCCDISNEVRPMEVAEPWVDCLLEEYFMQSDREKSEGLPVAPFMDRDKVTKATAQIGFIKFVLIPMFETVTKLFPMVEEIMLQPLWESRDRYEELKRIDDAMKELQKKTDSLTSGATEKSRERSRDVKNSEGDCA
# [3] = Elderly subjects Part C, single oral 100 mg
# [4] = healthy adults Part A, single oral 10 mg
# [5] = healthy adults Part A, single oral 25 mg
# [6] = healthy adults Part A, single oral 50 mg
# [7] = healthy adults Part A, single oral 100 mg
# [8] = healthy adults Part A, single oral 200 mg
# [9] = healthy adults Part A, single oral 400 mg
# [10] = healthy adults Part A, single oral 800 mg
# [11] = healthy adults Part A, single oral 1200 mg
# [12] = Day 13, 5 mg QD oral, Parts A and D
# [13] = Day 13, 10 mg QD oral, Parts A and D
# [14] = Day 13, 25 mg QD oral, Parts A and D
# [15] = Day 13, 50 mg QD oral, Parts A and D
# [16] = Day 13, 100 mg QD oral, Parts A and D
# [17] = Day 13, 200 mg QD oral, Parts A and D
# [18] = Day 13, 400 mg QD oral Non-Japanese, Parts A and D
smiles,measurement,setting,value
"COc1ncc(C)c(-c2ccc3c(c2)[nH]c(=O)c2cnn([C@H]4CCOC4)c23)c1C [Compound A, (S)-7-(2-methoxy-3,5-dimethylpyridin-4-yl)-1-(tetrahydrofuran-3-yl)-1H-pyrazolo[4,3-c]quin olin-4(5H)-one]",Kp,"[1]; CSF and plasma, oral, 50 to 400 mg, read-out: GM ratios of CSF AUC(0-t) to plasma AUC(0-t) across doses",0.0241 to 0.028
same,Kp,"[1]; CSF and plasma, oral, 50 to 400 mg, read-out: GM ratios of CSF Cmax to plasma Cmax across doses",0.02 to 0.0277
same,Kp,"[1]; CSF and plasma, po, 50 mg, healthy adults Part B, single oral 50 mg, fasted, read-out: CSF: plasma Cmax ratio (expressed as %) GM (% CV)",0.02
same,Kp,"[1]; CSF and plasma, po, 75 mg, healthy adults Part B, single oral 75 mg, fasted, from AUC (0-t) or AUC (0-30 h), read-out: CSF: plasma AUC ratio (expressed as %) GM (% CV)",0.0264
same,Kp,"[1]; CSF and plasma, po, 75 mg, healthy adults Part B, single oral 75 mg, fasted, read-out: CSF: plasma Cmax ratio (expressed as %) GM (% CV)",0.0264
same,Kp,"[1]; CSF and plasma, po, 100 mg, healthy adults Part B, single oral 100 mg, fasted, from AUC (0-t) or AUC (0-30 h), read-out: CSF: plasma AUC ratio (expressed as %) GM (% CV)",0.0266
same,Kp,"[1]; CSF and plasma, po, 100 mg, healthy adults Part B, single oral 100 mg, fasted, read-out: CSF: plasma Cmax ratio (expressed as %) GM (% CV)",0.0194
same,Kp,"[1]; CSF and plasma, po, 200 mg, healthy adults Part B, single oral 200 mg, fasted, from AUC (0-t) or AUC (0-30 h), read-out: CSF: plasma AUC ratio (expressed as %) GM (% CV)",0.0238
same,Kp,"[1]; CSF and plasma, po, 200 mg, healthy adults Part B, single oral 200 mg, fasted, read-out: CSF: plasma Cmax ratio (expressed as %) GM (% CV)",0.0214
same,Kp,"[1]; CSF and plasma, po, 400 mg, healthy adults Part B, single oral 400 mg, fasted, from AUC (0-t) or AUC (0-30 h), read-out: CSF: plasma AUC ratio (expressed as %) GM (% CV)",0.0279
same,Kp,"[1]; CSF and plasma, po, 400 mg, healthy adults Part B, single oral 400 mg, fasted, read-out: CSF: plasma Cmax ratio (expressed as %) GM (% CV)",0.0203
same,Kp,"[1]; CSF, oral, 50 to 400 mg, read-out: mean CSF:plasma ratios (expressed as percentages) of Cmax or AUC(0-t)",0.02 to 0.03
same,Tmax,"[1]; CSF, oral, single doses (50 to 400 mg except 50 mg; b332: 100 to 400 mg), read-out: median CSF tmax across doses",4.37 to 6.87 h
same,Tmax,"[1]; CSF, healthy adults Part B, single oral 50 mg, fasted, read-out: CSF tmax Median",11.9 h
same,Tmax,"[1]; CSF, healthy adults Part B, single oral 75 mg, fasted, read-out: CSF tmax Median",5.37 h
same,Tmax,"[1]; CSF, healthy adults Part B, single oral 100 mg, fasted, read-out: CSF tmax Median",6.87 h
same,Tmax,"[1]; CSF, healthy adults Part B, single oral 200 mg, fasted, read-out: CSF tmax Median",4.37 h
same,Tmax,"[1]; CSF, healthy adults Part B, single oral 400 mg, fasted, read-out: CSF tmax Median",5.37 h
same,Ae(0-96 h) GM,[2]; [3],0.228 mg
same,Fe(0-96 h) GM,[2]; [3],0.228%
same,Ae(0-96 h) GM,[2]; [4],0.0218 mg
same,Fe(0-96 h) GM,[2]; [4],0.218%
same,Ae(0-96 h) GM,[2]; [5],0.0476 mg
same,Fe(0-96 h) GM,[2]; [5],0.190%
same,Ae(0-96 h) GM,[2]; [6],0.104 mg
same,Fe(0-96 h) GM,[2]; [6],0.208%
same,Ae(0-96 h) GM,[2]; [7],0.295 mg
same,Fe(0-96 h) GM,[2]; [7],0.295%
same,Ae(0-96 h) GM,[2]; [8],0.177 mg
same,Fe(0-96 h) GM,[2]; [8],0.0885%
same,Ae(0-96 h) GM,[2]; [9],0.615 mg
same,Fe(0-96 h) GM,[2]; [9],0.154%
same,Ae(0-96 h) GM,[2]; [10],0.762 mg
same,Fe(0-96 h) GM,[2]; [10],0.0953%
same,Ae(0-96 h) GM,[2]; [11],1.18 mg
same,Fe(0-96 h) GM,[2]; [11],0.0979%
same,CL renal,"[2]; 10 mg, healthy adults Part A, single oral 10 mg",0.228 mL/min
same,CL renal,"[2]; 25 mg, healthy adults Part A, single oral 25 mg",0.202 mL/min
same,CL renal,"[2]; 50 mg, healthy adults Part A, single oral 50 mg",0.268 mL/min
same,CL renal,"[2]; 100 mg, Elderly subjects Part C, single oral 100 mg",0.22 mL/min
same,CL renal,"[2]; 100 mg, healthy adults Part A, single oral 100 mg",0.37 mL/min
same,CL renal,"[2]; 200 mg, healthy adults Part A, single oral 200 mg",0.17 mL/min
same,CL renal,"[2]; 400 mg, healthy adults Part A, single oral 400 mg",0.337 mL/min
same,CL renal,"[2]; 800 mg, healthy adults Part A, single oral 800 mg",0.212 mL/min
same,CL renal,"[2]; 1200 mg, healthy adults Part A, single oral 1200 mg",0.287 mL/min
same,CSF cGMP % Change from Baseline Mean,CSF cGMP; [12],33.162%
same,CSF cGMP % Change from Baseline Median,CSF cGMP; [12],29.954%
same,CSF cGMP Change from Baseline Mean,CSF cGMP; [12],0.491 µg/L
same,CSF cGMP Change from Baseline Median,CSF cGMP; [12],0.350 µg/L
same,CSF cGMP Mean,CSF cGMP; [12],1.964 µg/L
same,CSF cGMP Median,CSF cGMP; [12],1.730 µg/L
same,CSF cGMP % Change from Baseline Mean,CSF cGMP; [13],94.222%
same,CSF cGMP % Change from Baseline Median,CSF cGMP; [13],104.348%
same,CSF cGMP Change from Baseline Mean,CSF cGMP; [13],1.276 µg/L
same,CSF cGMP Change from Baseline Median,CSF cGMP; [13],1.390 µg/L
same,CSF cGMP Mean,CSF cGMP; [13],2.704 µg/L
same,CSF cGMP Median,CSF cGMP; [13],2.620 µg/L
same,CSF cGMP % Change from Baseline Mean,CSF cGMP; [14],170.369%
same,CSF cGMP % Change from Baseline Median,CSF cGMP; [14],183.494%
same,CSF cGMP Change from Baseline Mean,CSF cGMP; [14],2.058 µg/L
same,CSF cGMP Change from Baseline Median,CSF cGMP; [14],1.979 µg/L
same,CSF cGMP Mean,CSF cGMP; [14],3.283 µg/L
same,CSF cGMP Median,CSF cGMP; [14],3.225 µg/L
same,CSF cGMP % Change from Baseline Mean,CSF cGMP; [15],191.445%
same,CSF cGMP % Change from Baseline Median,CSF cGMP; [15],189.244%
same,CSF cGMP Change from Baseline Mean,CSF cGMP; [15],3.750 µg/L
same,CSF cGMP Change from Baseline Median,CSF cGMP; [15],3.260 µg/L
same,CSF cGMP Mean,CSF cGMP; [15],5.778 µg/L
same,CSF cGMP Median,CSF cGMP; [15],4.870 µg/L
same,CSF cGMP % Change from Baseline Mean,CSF cGMP; [16],260.350%
same,CSF cGMP % Change from Baseline Median,CSF cGMP; [16],258.784%
same,CSF cGMP Change from Baseline Mean,CSF cGMP; [16],4.352 µg/L
same,CSF cGMP Change from Baseline Median,CSF cGMP; [16],3.960 µg/L
same,CSF cGMP Mean,CSF cGMP; [16],6.066 µg/L
same,CSF cGMP Median,CSF cGMP; [16],5.420 µg/L
same,CSF cGMP % Change from Baseline Mean,CSF cGMP; [17],201.165%
same,CSF cGMP % Change from Baseline Median,CSF cGMP; [17],192.932%
same,CSF cGMP Change from Baseline Mean,CSF cGMP; [17],3.810 µg/L
same,CSF cGMP Change from Baseline Median,CSF cGMP; [17],3.755 µg/L
same,CSF cGMP Mean,CSF cGMP; [17],5.702 µg/L
same,CSF cGMP Median,CSF cGMP; [17],5.640 µg/L
same,CSF cGMP % Change from Baseline Mean,CSF cGMP; [18],198.283%
same,CSF cGMP % Change from Baseline Median,CSF cGMP; [18],191.646%
same,CSF cGMP Change from Baseline Mean,CSF cGMP; [18],3.302 µg/L
same,CSF cGMP Change from Baseline Median,CSF cGMP; [18],2.920 µg/L
same,CSF cGMP Mean,CSF cGMP; [18],4.945 µg/L
same,CSF cGMP Median,CSF cGMP; [18],4.370 µg/L
same,CSF cGMP % Change from Baseline Mean,"CSF cGMP; Part C, 50 mg, Day 13",229.107%
same,CSF cGMP % Change from Baseline Median,"CSF cGMP; Part C, 50 mg, Day 13",218.491%
same,CSF cGMP Change from Baseline Mean,"CSF cGMP; Part C, 50 mg, Day 13",3.206 µg/L
same,CSF cGMP Change from Baseline Median,"CSF cGMP; Part C, 50 mg, Day 13",3.065 µg/L
same,CSF cGMP Mean,"CSF cGMP; Part C, 50 mg, Day 13",4.620 µg/L
same,CSF cGMP Median,"CSF cGMP; Part C, 50 mg, Day 13",4.265 µg/L
same,CSF cGMP % Change from Baseline Mean,"CSF cGMP; Part C, 50 mg, Day 41",222.283%
same,CSF cGMP % Change from Baseline Median,"CSF cGMP; Part C, 50 mg, Day 41",182.044%
same,CSF cGMP Change from Baseline Mean,"CSF cGMP; Part C, 50 mg, Day 41",3.097 µg/L
same,CSF cGMP Change from Baseline Median,"CSF cGMP; Part C, 50 mg, Day 41",2.975 µg/L
same,CSF cGMP Mean,"CSF cGMP; Part C, 50 mg, Day 41",4.511 µg/L
same,CSF cGMP Median,"CSF cGMP; Part C, 50 mg, Day 41",4.650 µg/L
same,PDE9 inhibitory activity,PDE9,known to have a PDE9 inhibitory activity
